The structures appear in SMILES notation.

The values below come from publication PMC12621043, “Un-LOK-ing a New Approach for Conformational Selective Targeting of STK10 (LOK)” (ACS Medicinal Chemistry Letters, 2025).

What all share (assay): DSF Tm panel
Format in all cases: binding
What all share (details): 10 μM compound

For one test, the target named is T1, UKL3A (ULK3A) (Homo sapiens, UniProt Q6PHR2).
T1 construct: purchased in-house DSF kinase panel (SGC-style construct names; the trailing letter is the construct ID)
T1 sequence (Q6PHR2 1-279): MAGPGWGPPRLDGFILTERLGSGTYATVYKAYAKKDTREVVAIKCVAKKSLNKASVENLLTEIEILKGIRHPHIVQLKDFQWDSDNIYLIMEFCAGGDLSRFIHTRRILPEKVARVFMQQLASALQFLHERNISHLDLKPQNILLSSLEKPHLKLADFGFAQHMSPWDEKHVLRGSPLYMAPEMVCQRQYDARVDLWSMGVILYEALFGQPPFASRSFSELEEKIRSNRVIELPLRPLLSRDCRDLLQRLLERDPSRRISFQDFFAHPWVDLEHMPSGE

In a further test the target is T2, MARK3A (Homo sapiens, UniProt P27448).
T2 construct: purchased in-house DSF kinase panel (SGC-style construct names; the trailing letter is the construct ID)
T2 sequence (P27448 56-307): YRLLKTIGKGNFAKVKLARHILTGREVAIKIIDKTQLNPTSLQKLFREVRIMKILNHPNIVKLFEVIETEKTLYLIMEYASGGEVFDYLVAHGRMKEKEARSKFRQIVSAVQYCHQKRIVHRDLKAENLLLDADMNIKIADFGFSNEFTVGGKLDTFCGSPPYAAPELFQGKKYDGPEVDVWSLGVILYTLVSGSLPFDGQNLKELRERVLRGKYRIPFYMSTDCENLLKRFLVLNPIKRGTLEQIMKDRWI

The target of a further test is T3, STK38LA (Homo sapiens, UniProt Q9Y2H1).
T3 construct: purchased in-house DSF kinase panel (SGC-style construct names; the trailing letter is the construct ID)
T3 sequence (Q9Y2H1 90-453): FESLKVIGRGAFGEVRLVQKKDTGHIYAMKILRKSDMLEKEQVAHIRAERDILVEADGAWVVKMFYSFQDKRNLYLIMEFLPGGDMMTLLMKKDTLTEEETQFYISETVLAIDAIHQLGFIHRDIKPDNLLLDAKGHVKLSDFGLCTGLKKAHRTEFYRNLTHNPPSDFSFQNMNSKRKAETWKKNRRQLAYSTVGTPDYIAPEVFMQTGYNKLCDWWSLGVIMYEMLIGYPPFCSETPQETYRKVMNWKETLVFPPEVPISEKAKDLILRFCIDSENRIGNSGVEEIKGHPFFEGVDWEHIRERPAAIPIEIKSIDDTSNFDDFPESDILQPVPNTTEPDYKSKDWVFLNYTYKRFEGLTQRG

In a further test the test system is RPS6KA6A.
Another test deals with T4, MERTK (Homo sapiens, UniProt Q12866).
T4 construct: purchased in-house DSF kinase panel (SGC-style construct names; the trailing letter is the construct ID)
T4 sequence (Q12866 570-864): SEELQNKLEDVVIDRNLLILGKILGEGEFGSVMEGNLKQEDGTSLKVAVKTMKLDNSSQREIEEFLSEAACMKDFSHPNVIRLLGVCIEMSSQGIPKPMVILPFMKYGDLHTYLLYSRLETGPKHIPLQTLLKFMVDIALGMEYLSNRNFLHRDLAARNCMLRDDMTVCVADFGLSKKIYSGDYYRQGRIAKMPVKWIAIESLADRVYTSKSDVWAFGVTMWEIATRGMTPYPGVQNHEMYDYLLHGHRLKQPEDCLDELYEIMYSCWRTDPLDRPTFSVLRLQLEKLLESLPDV

For another test, the target named is T5, RIOK1A (Homo sapiens, UniProt Q9BRS2).
T5 construct: purchased in-house DSF kinase panel (SGC-style construct names; the trailing letter is the construct ID)
T5 sequence (Q9BRS2 143-494): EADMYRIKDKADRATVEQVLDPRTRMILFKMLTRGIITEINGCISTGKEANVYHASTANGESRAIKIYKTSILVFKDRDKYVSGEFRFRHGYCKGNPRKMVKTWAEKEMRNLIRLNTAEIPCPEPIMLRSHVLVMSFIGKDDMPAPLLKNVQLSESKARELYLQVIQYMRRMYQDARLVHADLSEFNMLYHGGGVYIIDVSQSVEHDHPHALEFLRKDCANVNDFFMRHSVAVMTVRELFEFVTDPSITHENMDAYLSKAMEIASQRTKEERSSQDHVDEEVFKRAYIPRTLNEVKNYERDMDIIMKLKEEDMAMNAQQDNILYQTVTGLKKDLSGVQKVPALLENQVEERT

The target of the next test is T6, CAMK1GA (Homo sapiens, UniProt Q96NX5).
T6 construct: purchased in-house DSF kinase panel (SGC-style construct names; the trailing letter is the construct ID)
T6 sequence (Q96NX5 18-316): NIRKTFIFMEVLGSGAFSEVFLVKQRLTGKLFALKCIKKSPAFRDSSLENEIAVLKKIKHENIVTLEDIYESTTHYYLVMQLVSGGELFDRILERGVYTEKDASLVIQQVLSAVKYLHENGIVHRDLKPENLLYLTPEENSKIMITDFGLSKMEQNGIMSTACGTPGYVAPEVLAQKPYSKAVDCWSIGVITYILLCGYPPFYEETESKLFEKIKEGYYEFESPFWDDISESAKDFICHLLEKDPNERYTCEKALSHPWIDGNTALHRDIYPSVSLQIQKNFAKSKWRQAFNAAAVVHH

A further test concerns the target T7, EPHA4A (Homo sapiens, UniProt P54764).
T7 construct: purchased in-house DSF kinase panel (SGC-style construct names; the trailing letter is the construct ID)
T7 sequence (P54764 621-882): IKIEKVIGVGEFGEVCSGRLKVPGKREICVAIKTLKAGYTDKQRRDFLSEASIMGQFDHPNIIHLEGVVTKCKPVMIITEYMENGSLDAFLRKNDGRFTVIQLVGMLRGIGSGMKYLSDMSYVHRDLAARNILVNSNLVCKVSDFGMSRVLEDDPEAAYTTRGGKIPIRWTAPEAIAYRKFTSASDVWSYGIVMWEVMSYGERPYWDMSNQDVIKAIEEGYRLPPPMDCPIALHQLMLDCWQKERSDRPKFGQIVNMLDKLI

The subject of another test is RPS6KA5A. On the procedure:
The synthesized urea-based derivatives were evaluated in a panel of kinases by differential scanning fluorescence (DSF) to investigate their selectivity profile. A positive ΔT m in the DSF assay indicates stabilization of the protein upon ligand binding in comparison to its apo state, with higher thermal shifts generally correlating with stronger binding. For this purpose, we used our internal kinase selectivity panel (∼90 kinases) along with staurosporine as a positive control. […]
was performed as previously described.[1,2] Briefly, recombinant protein kinase domains at a concentration of 2 μM were mixed with 10 μM compound in a buffer containing 20 mM HEPES, […]
probe (1 µl per mL). Subsequently, temperature-dependent protein unfolding profiles were […]
The temperature was raised with a step rate of 3 °C per minute. […]
inflection point of the transition curve. […]
previously.[3] In brief, STK10, STK3, STK4 and SLK were obtained as plasmids cloned in […]
Plasmids were transfected into
KD concentration taken from TracerDB (tracerdb.org)[4] were pipetted into white 384-well

The target in another test is T8, AURKBA (Homo sapiens, UniProt Q96GD4).
T8 construct: purchased in-house DSF kinase panel (SGC-style construct names; the trailing letter is the construct ID)
T8 sequence (Q96GD4 whole entry): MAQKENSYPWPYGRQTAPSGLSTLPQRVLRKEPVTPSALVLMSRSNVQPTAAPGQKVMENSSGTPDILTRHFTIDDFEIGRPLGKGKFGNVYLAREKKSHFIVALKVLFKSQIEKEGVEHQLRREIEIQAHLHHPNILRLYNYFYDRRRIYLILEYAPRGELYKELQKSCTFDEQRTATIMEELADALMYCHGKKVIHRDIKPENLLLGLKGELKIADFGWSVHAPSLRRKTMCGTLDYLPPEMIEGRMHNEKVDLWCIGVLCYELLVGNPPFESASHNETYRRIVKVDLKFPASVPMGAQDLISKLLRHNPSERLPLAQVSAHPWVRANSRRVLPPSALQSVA

The target in another test is T9, NEK2A (Homo sapiens, UniProt P51955).
T9 construct: purchased in-house DSF kinase panel (SGC-style construct names; the trailing letter is the construct ID)
T9 sequence (P51955 1-271): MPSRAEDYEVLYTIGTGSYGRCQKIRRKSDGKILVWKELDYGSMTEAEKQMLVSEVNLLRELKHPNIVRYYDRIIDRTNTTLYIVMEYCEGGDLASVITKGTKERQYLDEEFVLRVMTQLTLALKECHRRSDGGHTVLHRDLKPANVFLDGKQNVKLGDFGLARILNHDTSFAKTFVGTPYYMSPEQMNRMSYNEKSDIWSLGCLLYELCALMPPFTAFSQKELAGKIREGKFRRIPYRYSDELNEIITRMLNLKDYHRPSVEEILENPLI

A further test deals with T10, MAPKAPK2A (Homo sapiens, UniProt P49137).
T10 construct: purchased in-house DSF kinase panel (SGC-style construct names; the trailing letter is the construct ID)
T10 sequence (P49137 64-325): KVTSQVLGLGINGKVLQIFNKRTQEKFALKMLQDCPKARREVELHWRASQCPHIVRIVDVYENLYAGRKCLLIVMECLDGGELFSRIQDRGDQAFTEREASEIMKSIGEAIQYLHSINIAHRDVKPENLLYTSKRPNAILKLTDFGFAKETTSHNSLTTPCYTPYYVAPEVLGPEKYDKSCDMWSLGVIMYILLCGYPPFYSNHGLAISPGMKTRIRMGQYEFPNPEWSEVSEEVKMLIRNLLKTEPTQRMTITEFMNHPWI

As usually defined, the ΔTm is the shift of the melting midpoint relative to a reference. As to `O=C(NCc1ccccc1)Nc1ccc2cc1OCCOCCNc1ccn3ncc-2c3n1` [compound 16], the ΔTm at 10 µM on UKL3A (ULK3A) is 6.8 °C; on MARK3A it was 0.7 °C; at STK38LA, 0.8 °C; on MERTK, 1.4 °C; at RIOK1A, 0.1 °C; on CAMK1GA, -0.3 °C. The “ΔTm RPS6KA6A” value with RPS6KA6A is -1,2 °C.

With `O=C(NCc1ccccc1Cl)Nc1ccc2cc1OCCOCCNc1ccn3ncc-2c3n1` [compound 17], the ΔTm at 10 µM on UKL3A (ULK3A) is 3.2 °C; on MARK3A it was 0.8 °C; on STK38LA, 0.7 °C; at MERTK, 1.6 °C; at RIOK1A it was 0.5 °C; at CAMK1GA, 0.9 °C. Moreover, the “ΔTm RPS6KA6A” value with RPS6KA6A was -0,3 °C.

With `O=C(NCc1cccc(Cl)c1)Nc1ccc2cc1OCCOCCNc1ccn3ncc-2c3n1` [compound 18], the ΔTm at 10 µM at UKL3A (ULK3A) worked out at 4.6 °C; at MARK3A, 0.7 °C; at STK38LA it was 1.1 °C; on MERTK it was 1.8 °C; on RIOK1A, 1.4 °C; on CAMK1GA, 0.8 °C. For the same molecule, the “ΔTm RPS6KA6A” value with RPS6KA6A was -0,3 °C.

Regarding `O=C(NCc1ccc(Cl)cc1)Nc1ccc2cc1OCCOCCNc1ccn3ncc-2c3n1` [compound 19], the ΔTm at 10 µM on UKL3A (ULK3A) came out at 4.6 °C; at MARK3A, 0.2 °C; on STK38LA it was 0.6 °C; at MERTK, 2.5 °C; at RIOK1A it was 1.1 °C; on CAMK1GA, 0.9 °C. The “ΔTm RPS6KA6A” value in the test on RPS6KA6A was -0,2 °C.

Turning to `O=C(NCc1ccc(Cl)cc1Cl)Nc1ccc2cc1OCCOCCNc1ccn3ncc-2c3n1` [compound 20], the ΔTm at 10 µM on UKL3A (ULK3A) was 2.3 °C; on MARK3A, 1.7 °C; at STK38LA, 0.7 °C; at MERTK it was 2.2 °C; on RIOK1A it was 1.9 °C; on CAMK1GA it was 2.7 °C. Also, the “ΔTm RPS6KA6A” value with RPS6KA6A is 0,5 °C.

Take `O=C(NCc1ccc(Cl)cc1F)Nc1ccc2cc1OCCOCCNc1ccn3ncc-2c3n1` [compound 21]: the ΔTm at 10 µM was 4.6 °C at UKL3A (ULK3A); 1.5 °C on MARK3A; 1.2 °C at STK38LA; 2.7 °C on MERTK; -0.1 °C on RIOK1A; 2 °C on CAMK1GA. The “ΔTm RPS6KA6A” value in the test on RPS6KA6A is -0,7 °C.

For the molecule `Cc1cc(Br)ccc1CNC(=O)Nc1ccc2cc1OCCOCCNc1ccn3ncc-2c3n1` [compound 24], the ΔTm at 10 µM was 0.2 °C on EPHA4A; 3.7 °C at UKL3A (ULK3A); 0.8 °C on MARK3A; 7.7 °C at AURKBA; -1.3 °C on NEK2A; 0.1 °C at MAPKAPK2A. Further, the “ΔTm RPS6KA5A” value in the test on RPS6KA5A is 1,0 °C.

Consider `Cc1ccc(F)cc1CNC(=O)Nc1ccc2cc1OCCOCCNc1ccn3ncc-2c3n1` [compound 26], for which the ΔTm at 10 µM is 0.3 °C at EPHA4A; 3.9 °C at UKL3A (ULK3A); 0.2 °C at MARK3A; 7.8 °C on AURKBA; -1.2 °C on NEK2A; 0.1 °C at MAPKAPK2A. Moreover, the “ΔTm RPS6KA5A” value in the test with RPS6KA5A was 0,7 °C.

`O=C(NCc1ccccc1C(F)(F)F)Nc1ccc2cc1OCCOCCNc1ccn3ncc-2c3n1` [compound 27]: the ΔTm at 10 µM at EPHA4A is 0.3 °C; at UKL3A (ULK3A), 4.5 °C; on MARK3A, 1.4 °C; on AURKBA, 8.6 °C; at NEK2A, -0.4 °C; at MAPKAPK2A, 0.1 °C. Besides, the “ΔTm RPS6KA5A” value in the test on RPS6KA5A is 1,3 °C.

Regarding `O=C(NCc1ccc(C(F)(F)F)cc1)Nc1ccc2cc1OCCOCCNc1ccn3ncc-2c3n1` [compound 28], the ΔTm at 10 µM on EPHA4A was determined as 0.5 °C; at UKL3A (ULK3A), 4.3 °C; at MARK3A it was 1.4 °C; on AURKBA, 9 °C; at NEK2A it was 0.4 °C; on MAPKAPK2A, 0.4 °C. The “ΔTm RPS6KA5A” value in the test on RPS6KA5A was 1,5 °C.

For the molecule `COc1ccccc1CNC(=O)Nc1ccc2cc1OCCOCCNc1ccn3ncc-2c3n1` [compound 29], the ΔTm at 10 µM is 0.3 °C on EPHA4A; 4.2 °C on UKL3A (ULK3A); -0.1 °C on MARK3A; 6.6 °C at AURKBA; -0.3 °C on NEK2A; 0.2 °C on MAPKAPK2A. Also, the “ΔTm RPS6KA5A” value in the test on RPS6KA5A is 0,2 °C.

Consider `COc1cccc(CNC(=O)Nc2ccc3cc2OCCOCCNc2ccn4ncc-3c4n2)c1` [compound 30], for which the ΔTm at 10 µM on EPHA4A was 0.3 °C; at UKL3A (ULK3A), 4.4 °C; on MARK3A, -0.3 °C; on AURKBA, 7.3 °C; at NEK2A, -0.5 °C; at MAPKAPK2A, 0.2 °C. Also, the “ΔTm RPS6KA5A” value in the test on RPS6KA5A was 0,3 °C.

As for `COc1ccc(CNC(=O)Nc2ccc3cc2OCCOCCNc2ccn4ncc-3c4n2)cc1` [compound 31], the ΔTm at 10 µM on EPHA4A was 0.4 °C; at UKL3A (ULK3A), 6.1 °C; on MARK3A it was 0.2 °C; on AURKBA it was 7.6 °C; on NEK2A, -1.3 °C; on MAPKAPK2A, 0.2 °C.

In the case of `COc1ccc(CNC(=O)Nc2ccc3cc2OCCOCCNc2ccn4ncc-3c4n2)cc1F` [compound 32], the ΔTm at 10 µM was 0.4 °C on EPHA4A; 5.9 °C on UKL3A (ULK3A); 0.5 °C on MARK3A; 7.9 °C at AURKBA; -1.3 °C on NEK2A; 0.2 °C at MAPKAPK2A. Besides, the “ΔTm RPS6KA5A” value in the test on RPS6KA5A is 1,1 °C.

For the molecule `COc1cc(CNC(=O)Nc2ccc3cc2OCCOCCNc2ccn4ncc-3c4n2)ccc1F` [compound 33], the ΔTm at 10 µM at EPHA4A was 0.4 °C; on UKL3A (ULK3A), 4.5 °C; on MARK3A, 0.3 °C; on AURKBA, 9.1 °C; at NEK2A, -1.3 °C; on MAPKAPK2A, 0.1 °C. Further, the “ΔTm RPS6KA5A” value with RPS6KA5A is 0,7 °C.

Consider `C[C@H](NC(=O)Nc1ccc2cc1OCCOCCNc1ccn3ncc-2c3n1)c1ccccc1` [compound 34], for which the ΔTm at 10 µM is 0.3 °C on EPHA4A; 4.1 °C at UKL3A (ULK3A); 0 °C on MARK3A; 7.1 °C at AURKBA; -1.3 °C on NEK2A; 0.1 °C on MAPKAPK2A. In the test with RPS6KA5A, the “ΔTm RPS6KA5A” value was 0,6 °C.
